The text below walks through data of PubChem BioAssay (NCI).

The structures appear in SMILES notation. Where “and” joins values, the source holds several entries; their conditions need not be identical. Equal values may be shown once.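 Each compound was tested at five concentrations against cells in 96-well plates for 48 hours. Here, GI50 denotes the concentration required for 50% inhibition of growth. Definition used: TGI = concentration required for complete inhibition of growth.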 Some results are limits rather than exact numbers.

Some test systems named below: HOP-18 NSCLC; XF 498 CNS; DMS 114 small cell lung; SNB-78 CNS; M19-MEL melanoma; LXFL 529 NSCLC; DLD-1 colon; RXF-631 renal; SN12K1 renal; P388 leukemia; P388/ADR leukemia.
What all share (assay): NCI tumour cell line growth inhibition, 48 h

For `Cc1cn([C@@H]2C[C@H](CO)[C@@H](O)C2)c(=O)[nH]c1=O`, the TGI with HOP-18 NSCLC, in the test on XF 498 CNS, with DMS 114 small cell lung, with SNB-78 CNS, in the test on M19-MEL melanoma and with LXFL 529 NSCLC was more than 100 µM throughout. Besides, the TGI in the test on DLD-1 colon and in the test on RXF-631 renal was more than 100 µM in each case.

As to `Cn1ccnc1C(O)(c1nccn1C)c1nccn1C`, the TGI in the test with HOP-18 NSCLC, with XF 498 CNS, in the test with DMS 114 small cell lung, in the test on SNB-78 CNS, with M19-MEL melanoma and in the test on LXFL 529 NSCLC was more than 100 µM each time. In the test on DLD-1 colon, this molecule displayed a TGI of more than 100 µM.

Take `O=C(CN(c1ccccc1)c1ccccc1)N1c2ccccc2C2C=CC=CC21` (centres undefined): the TGI was 74.9 µM in the test with HOP-18 NSCLC; 53.2 µM in the test on XF 498 CNS; 23.1 µM with DMS 114 small cell lung; more than 58.7 µM with SNB-78 CNS; more than 57.4 µM in the test with M19-MEL melanoma; 34.6 µM in the test on LXFL 529 NSCLC. For the same molecule, the TGI with DLD-1 colon was more than 57.5 µM.

In the case of `COc1c(O)c2c3c(c(C)cc(O)c3c1O)C(=O)C(O)(C(C)(C)C(C)=O)C2=O` (centres undefined), the TGI in the test on HOP-18 NSCLC was more than 100 µM; in the test with XF 498 CNS, more than 100 µM; in the test on DMS 114 small cell lung it was 28.2 µM and > 100 µM; in the test with SNB-78 CNS, more than 100 µM; in the test with M19-MEL melanoma it was 28.1 µM and 35.3 µM; with LXFL 529 NSCLC it was more than 100 µM. The same molecule displayed a TGI with DLD-1 colon of more than 100 µM. Besides, in the test with DMS 114 small cell lung, the GI50 is 13.3 µM and 55.3 µM.

`COC(=O)/C(=N/O)C(C(=O)C=C(C)C)C(=O)C(=O)Nc1nc2ccc([N+](=O)[O-])cc2s1` (centres undefined): the TGI in the test on XF 498 CNS, in the test on SNB-78 CNS, with M19-MEL melanoma and in the test on LXFL 529 NSCLC was more than 100 µM in each case.

With `O=C1NCCS(=O)(=O)N[C@@H](CC2=CC=CCC2)C(=O)N2CCCC12` (some centres undefined), the TGI in the test on HOP-18 NSCLC, with XF 498 CNS, in the test on DMS 114 small cell lung, in the test on SNB-78 CNS, in the test with M19-MEL melanoma and in the test on LXFL 529 NSCLC was more than 100 µM each time. Besides, the TGI with DLD-1 colon and in the test with RXF-631 renal was more than 100 µM in each case.

For `Cc1cccc(C2=C/C(=C(\SS/C(C(=O)c3ccc(OCC(=O)O)c(Cl)c3Cl)=C3\C=C(c4cccc(C)c4)SS3)C(=O)c3ccc(OCC(=O)O)c(Cl)c3Cl)SS2)c1`, the TGI in the test with HOP-18 NSCLC was 50.5 µM; in the test with XF 498 CNS it was 54.6 µM; in the test with DMS 114 small cell lung, 17.7 µM; with SNB-78 CNS, 80.6 µM; in the test with M19-MEL melanoma, more than 60.1 µM; with DLD-1 colon it was more than 100 µM.

Regarding `CSC(=Nc1ccccc1)N(c1ccccc1)c1nc(=[N+](C)C)ss1`, the values for the TGI with DMS 114 small cell lung, in the test with SNB-78 CNS and with M19-MEL melanoma were 0.46 µM, 21.4 µM and 4.98 µM, respectively.

Turning to `CCN1CCCC(NCc2c3ccccc3c(CNC3CCCN(CC)C3)c3ccccc23)C1` (centres undefined), the TGI in the test on SN12K1 renal is 23.1 µM; with HOP-18 NSCLC it was more than 46.6 µM; in the test on P388 leukemia, 9.25 µM; with XF 498 CNS, more than 52.1 µM; in the test on DMS 114 small cell lung, 16.1 µM; with SNB-78 CNS, more than 73.1 µM. The TGI is 17.6 µM with M19-MEL melanoma, 69.5 µM in the test on DLD-1 colon and 33.8 µM in the test on P388/ADR leukemia.

On to `COc1ccc(-c2oc(/C=N/NC(N)=S)c([N+](=O)[O-])c2-c2ccc(OC)c(OC)c2)cc1OC`, for which the TGI in the test with XF 498 CNS was more than 100 µM; with DMS 114 small cell lung it was 46.8 µM; with M19-MEL melanoma, 63.1 µM; in the test on LXFL 529 NSCLC, 63.8 µM; in the test on DLD-1 colon, more than 100 µM; in the test on RXF-631 renal, more than 100 µM.

With `CC1=NN(C(=O)CC(=O)Nc2ccccc2F)C(=O)C1N=Nc1ccccc1[N+](=O)[O-]` (centres undefined), the TGI is more than 100 µM in the test on XF 498 CNS; more than 100 µM in the test on DMS 114 small cell lung; more than 100 µM with SNB-78 CNS; 33.6 µM with M19-MEL melanoma; more than 100 µM with LXFL 529 NSCLC; more than 100 µM in the test on DLD-1 colon.

Turning to `Nc1nc(N)c(N=O)c(Nc2ccc(Br)cc2)n1`, the TGI in the test with HOP-18 NSCLC was more than 100 µM; with XF 498 CNS it was 65.4 µM; in the test with DMS 114 small cell lung, 52.1 µM; with SNB-78 CNS it was more than 100 µM; in the test on M19-MEL melanoma, more than 100 µM; in the test with LXFL 529 NSCLC it was more than 100 µM. The same molecule had a TGI with DLD-1 colon of more than 100 µM.

Take `C=Cc1ccc(C)[n+](C[Si](C)(C)O[Si](C)(C)C[n+]2cc(C=C)ccc2C)c1`: the TGI in the test with HOP-18 NSCLC, with DMS 114 small cell lung, with SNB-78 CNS, with M19-MEL melanoma, in the test on LXFL 529 NSCLC and with DLD-1 colon was more than 100 µM in each case.

`CC(=O)OCC1OC(n2cc(I)c(=O)[nH]c2=O)C(OC(C)=O)C(OC(C)=O)C1OC(C)=O` (centres undefined): the TGI in the test with HOP-18 NSCLC, in the test with XF 498 CNS, in the test with DMS 114 small cell lung, in the test on M19-MEL melanoma, in the test on LXFL 529 NSCLC and with DLD-1 colon was more than 100 µM each time.

Regarding `O=C1Sc2ccccc2C(=O)N2CSCC12` (centres undefined), the TGI in the test on HOP-18 NSCLC, in the test on XF 498 CNS, with DMS 114 small cell lung, in the test with SNB-78 CNS, with M19-MEL melanoma and with LXFL 529 NSCLC was more than 100 µM in each case. In the test with DLD-1 colon, this molecule displayed a TGI of more than 100 µM.

With `N#CC1=C(c2ccccc2)NNC(c2ccc(Cl)cc2)CC1=O` (centres undefined), the TGI in the test on HOP-18 NSCLC is more than 100 µM; in the test on XF 498 CNS, 77.1 µM; with DMS 114 small cell lung it was more than 100 µM; in the test with SNB-78 CNS, more than 100 µM; in the test with LXFL 529 NSCLC, more than 100 µM; with DLD-1 colon, more than 100 µM.

Turning to `CCC1=CC2CN3Cn4c(c(COCc5c6n(c7ccccc57)CN5CC7C=C(CC)C5C6(C(=O)OC)C7)c5ccccc54)C(C(=O)OC)(C2)C13`, the TGI in the test with XF 498 CNS, with DMS 114 small cell lung, in the test on M19-MEL melanoma, with LXFL 529 NSCLC and with DLD-1 colon was more than 100 µM throughout.

For `CC(O)CCCOC(c1ccccc1)(c1ccccc1)c1ccccc1` (centres undefined), the TGI with XF 498 CNS amounted to 28.2 µM; in the test on DMS 114 small cell lung, 26.4 µM; with SNB-78 CNS, 29.3 µM; in the test with M19-MEL melanoma it was 31 µM; in the test on LXFL 529 NSCLC, 27.9 µM; in the test on DLD-1 colon, 31.5 µM.

Regarding `O=C(Cc1nc2c3c(ccc2[nH]c1=O)C(=O)c1ccccc1C3=O)C(=O)Nc1ccccc1[N+](=O)[O-]`, the TGI was determined as 43.1 µM with XF 498 CNS, 16.5 µM with SNB-78 CNS, 79.5 µM in the test with M19-MEL melanoma and 18 µM in the test with LXFL 529 NSCLC.

As to `O=c1[nH]cnc(NC2C=C(CO)C(O)C2O)c1[N+](=O)[O-]` (centres undefined), the TGI in the test on HOP-18 NSCLC is more than 100 µM; in the test with XF 498 CNS, more than 100 µM; with DMS 114 small cell lung, more than 84.7 µM; in the test on SNB-78 CNS it was more than 100 µM; with M19-MEL melanoma, more than 100 µM; with LXFL 529 NSCLC, more than 100 µM. This molecule also had a TGI in the test with DLD-1 colon of more than 100 µM.

As for `CCOP(=O)(OCC)C(C(=O)OC)C(=O)C(=O)Nc1ccc(Cl)cc1Cl` (centres undefined), the TGI in the test on HOP-18 NSCLC, with DMS 114 small cell lung, with SNB-78 CNS, in the test on M19-MEL melanoma, in the test on LXFL 529 NSCLC and in the test with DLD-1 colon was more than 100 µM each time.

For the molecule `ClC(Cl)=C1C(=C(Cl)Cl)C(Cl)(Cl)C1(Cl)Cl`, the TGI is 19.4 µM in the test with HOP-18 NSCLC; 2.33 µM in the test with DMS 114 small cell lung; 7.71 µM with SNB-78 CNS; 9.1 µM in the test with M19-MEL melanoma; 2.47 µM with LXFL 529 NSCLC; 3.3 µM in the test with DLD-1 colon. For the same molecule, the TGI in the test on RXF-631 renal was 13.9 µM.
